Results on two compounds are retold here after ChEMBL document CHEMBL5674870, “Uropathogenic E. coli (UPEC) Infection Induces Proliferation through Enhancer of Zeste Homologue 2 (EZH2)” (PLoS One, 2016).

Calls of active or inactive are those of the source. The calls are words filed in the database; no cut-off is given here.

Data set [1] is described as follows: Inhibition of KDM6A/6B in human HT-5637 cells assessed as increase in uropathogenic Escherichia coli infection-induced host cell proliferation at 100 nM measured 24 to 72 hrs after infection by immunofluorescence analysis. It counts as toxicity, cell-based. Particulars: human, 5637, 0.1 µM, time 24-72 hrs.
The nature of data set [2]: Inhibition of KDM6A/6B in human HT-5637 cells assessed as increase in uropathogenic Escherichia coli infection-induced WNT3A mRNA level by qRT-PCR analysis. The format is toxicity, cell-based. On the technique in general: In qPCR the cycle at which signal appears reflects the starting amount.
Data set [3] concerns the target Histone-lysine N-methyltransferase EZH2 (Homo sapiens) (UniProt Q15910). In words: Inhibition of EZH2 in human HT-5637 cells assessed as decrease in uropathogenic Escherichia coli infection-induced host cell proliferation at 500 nM measured 24 to 72 hrs after infection by immunofluorescence analysis. The format is cell-based. Particulars: time 24-72 hrs.
The target is the same in data set [4]. In words: Inhibition of EZH2 in human HT-5637 cells assessed as decrease in uropathogenic Escherichia coli infection-induced WNT3A mRNA level by qRT-PCR analysis. The format is cell-based.

Chain of Histone-lysine N-methyltransferase EZH2 (Homo sapiens) (Q15910 whole entry, looked up): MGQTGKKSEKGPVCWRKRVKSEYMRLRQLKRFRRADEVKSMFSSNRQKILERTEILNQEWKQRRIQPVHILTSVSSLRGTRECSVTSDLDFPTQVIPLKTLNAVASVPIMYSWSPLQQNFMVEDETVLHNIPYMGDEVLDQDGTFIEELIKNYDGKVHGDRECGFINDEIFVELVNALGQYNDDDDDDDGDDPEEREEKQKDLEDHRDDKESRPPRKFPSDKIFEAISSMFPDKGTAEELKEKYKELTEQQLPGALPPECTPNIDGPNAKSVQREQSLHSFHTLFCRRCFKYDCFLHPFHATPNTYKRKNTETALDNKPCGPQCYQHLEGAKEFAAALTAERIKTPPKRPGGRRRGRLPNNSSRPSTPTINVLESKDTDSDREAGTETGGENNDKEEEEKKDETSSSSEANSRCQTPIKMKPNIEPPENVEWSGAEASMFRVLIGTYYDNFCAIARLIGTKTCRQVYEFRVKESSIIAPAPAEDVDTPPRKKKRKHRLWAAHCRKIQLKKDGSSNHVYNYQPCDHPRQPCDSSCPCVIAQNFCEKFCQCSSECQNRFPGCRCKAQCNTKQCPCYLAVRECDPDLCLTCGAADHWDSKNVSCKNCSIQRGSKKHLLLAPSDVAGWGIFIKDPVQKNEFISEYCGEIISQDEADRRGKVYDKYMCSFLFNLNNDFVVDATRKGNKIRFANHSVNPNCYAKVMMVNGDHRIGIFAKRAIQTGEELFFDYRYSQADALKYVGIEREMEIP

For the compound `CCOC(=O)CCNc1cc(N2CCc3ccccc3CC2)nc(-c2ccccn2)n1`, the “inhibition (INH)” value in data set [1] and in data set [2] was “Active” throughout.
Regarding `CCCc1cc(C)[nH]c(=O)c1CNC(=O)c1cc(-c2ccc(N3CCN(C(C)C)CC3)nc2)cc2c1cnn2C(C)C`, the inhibition entry in data set [3] and in data set [4] was “Active” each time.
